Experimental data from PubChem BioAssay AID248 (DTP/NCI, 2004).
Toxic doses and inconclusive results are not listed. Rule as the data show it: active = T/C of 150% or more; inactive = T/C below 125%.

Tested on: L1210 leukemia ip in BDF1 mice, survival T/C
Experiment: NCI In Vivo Anticancer Drug Screen. Data for tumor model L1210 Leukemia (intraperitoneal) in B6D2F1 (BDF1) mice
Settings: endpoint: mean survival time, higher = longer survival
Summary of the method: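 Transplanted-tumor mice were given test agent; controls received vehicle only. Survival readings from the two groups were divided (treated over control).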

[1] = dose: 100.0 mg/kg/injection, schedule: Q01DX009 (ip), vehicle: Klucel (hydroxypropylcellulose) (HPC)
[2] = dose: 200.0 mg/kg/injection, schedule: Q01DX009 (ip), vehicle: Klucel (hydroxypropylcellulose) (HPC)
[3] = dose: 400.0 mg/kg/injection, schedule: Q01DX009 (ip), vehicle: Klucel (hydroxypropylcellulose) (HPC)
[4] = dose: 100.0 mg/kg/injection, schedule: Q04DX003 (ip), vehicle: saline
[5] = dose: 200.0 mg/kg/injection, schedule: Q04DX003 (ip), vehicle: saline
[6] = dose: 400.0 mg/kg/injection, schedule: Q04DX003 (ip), vehicle: saline
[7] = dose: 100.0 mg/kg/injection, schedule: Q04DX003 (ip), vehicle: Klucel (hydroxypropylcellulose) (HPC)
[8] = dose: 200.0 mg/kg/injection, schedule: Q04DX003 (ip), vehicle: Klucel (hydroxypropylcellulose) (HPC)
[9] = dose: 100.0 mg/kg/injection, schedule: Q04DX002 (ip), vehicle: Klucel (hydroxypropylcellulose) (HPC)
[10] = dose: 200.0 mg/kg/injection, schedule: Q04DX002 (ip), vehicle: Klucel (hydroxypropylcellulose) (HPC)
[11] = dose: 400.0 mg/kg/injection, schedule: Q04DX002 (ip), vehicle: Klucel (hydroxypropylcellulose) (HPC)
[12] = dose: 100.0 mg/kg/injection, schedule: Q01DX001 (ip), vehicle: saline with Tween-80
[13] = dose: 200.0 mg/kg/injection, schedule: Q01DX001 (ip), vehicle: saline with Tween-80
[14] = dose: 400.0 mg/kg/injection, schedule: Q01DX001 (ip), vehicle: saline with Tween-80
[15] = dose: 400.0 mg/kg/injection, schedule: Q04DX003 (ip), vehicle: Klucel (hydroxypropylcellulose) (HPC)

Measured: T/C

CCCCCCCCCCCC(=O)CCC
inactive: dose: 100.0 mg/kg/injection, schedule: Q01DX009 (ip), vehicle: other 87 % of control | dose: 100.0 mg/kg/injection, schedule: Q04DX003 (ip), vehicle: other 103 % of control | dose: 200.0 mg/kg/injection, schedule: Q01DX009 (ip), vehicle: other 95 % of control | dose: 200.0 mg/kg/injection, schedule: Q04DX003 (ip), vehicle: other 105 % of control | dose: 400.0 mg/kg/injection, schedule: Q01DX009 (ip), vehicle: other 89 % of control | dose: 400.0 mg/kg/injection, schedule: Q04DX003 (ip), vehicle: other 103 % of control

CC1(C)Cc2cccc(Br)c2O1
inactive: dose: 100.0 mg/kg/injection, schedule: Q01DX001 (ip), vehicle: other 98 % of control | dose: 200.0 mg/kg/injection, schedule: Q01DX001 (ip), vehicle: other 103 % of control | dose: 400.0 mg/kg/injection, schedule: Q01DX001 (ip), vehicle: other 97 % of control

NC(=O)c1ccccc1NC(=O)Nc1ccccc1F
inactive: [1] 105 % of control | [2] 107 % of control | [3] 100 % of control

COc1ccc(NC(=O)Nc2ccc(C)c(Cl)c2)cc1
inactive: dose: 100.0 mg/kg/injection, schedule: Q01DX009 (sc), vehicle: olive oil, sesame oil, peanut oil 96 % of control | dose: 100.0 mg/kg/injection, schedule: Q04DX003 (sc), vehicle: olive oil, sesame oil, peanut oil 99 % of control | dose: 200.0 mg/kg/injection, schedule: Q01DX009 (sc), vehicle: olive oil, sesame oil, peanut oil 107 % of control | dose: 200.0 mg/kg/injection, schedule: Q04DX003 (sc), vehicle: olive oil, sesame oil, peanut oil 93 % of control | dose: 400.0 mg/kg/injection, schedule: Q01DX009 (sc), vehicle: olive oil, sesame oil, peanut oil 94 % of control | dose: 400.0 mg/kg/injection, schedule: Q04DX003 (sc), vehicle: olive oil, sesame oil, peanut oil 97 % of control

ClCCC1CNCCN1 (configuration not stated)
inactive: dose: 100.0 mg/kg/injection, schedule: Q01DX009 (ip), vehicle: saline 87 % of control | [4] 96 % of control | dose: 200.0 mg/kg/injection, schedule: Q01DX009 (ip), vehicle: saline 89 % of control | [5] 96 % of control | dose: 400.0 mg/kg/injection, schedule: Q01DX009 (ip), vehicle: saline 89 % of control | [6] 103 % of control

O=C(O)C1(C(=O)O)CC23CCC2(C1)CC(C(=O)O)(C(=O)O)C3 (configuration not stated)
inactive: [4] 95 % of control | [5] 97 % of control | [6] 103 % of control

c1cc[c]([Ge]([CH2][CH2][Sn]([c]2ccccc2)([c]2ccccc2)[c]2ccccc2)([CH2][CH2][Sn]([c]2ccccc2)([c]2ccccc2)[c]2ccccc2)[c]2ccccc2)cc1
inactive: dose: 100.0 mg/kg/injection, schedule: Q04DX002 (ip), vehicle: saline with Tween-80 98 % of control | dose: 200.0 mg/kg/injection, schedule: Q04DX002 (ip), vehicle: saline with Tween-80 102 % of control | dose: 400.0 mg/kg/injection, schedule: Q04DX002 (ip), vehicle: saline with Tween-80 94 % of control

O=C(O)/C(=C\c1ccc([N+](=O)[O-])cc1)c1cccc2ccccc12
inactive: dose: 50.0 mg/kg/injection, schedule: Q04DX003 (ip), vehicle: Klucel (hydroxypropylcellulose) (HPC) 94 % of control | [1] 93 % of control | [7] 89 % of control | [2] 98 % of control | [8] 91 % of control

CCCCCCCCCCCc1nc(N)nc(NCCc2ccccc2)n1
inactive: dose: 12.5 mg/kg/injection, schedule: Q01DX009 (ip), vehicle: Klucel (hydroxypropylcellulose) (HPC) 95 % of control | dose: 25.0 mg/kg/injection, schedule: Q01DX009 (ip), vehicle: Klucel (hydroxypropylcellulose) (HPC) 89 % of control | dose: 50.0 mg/kg/injection, schedule: Q04DX002 (ip), vehicle: Klucel (hydroxypropylcellulose) (HPC) 87 % of control | [9] 93 % of control | [10] 97 % of control

CCOc1ccc(NC(=O)COc2ccc(Cl)cc2Cl)cc1
inactive: [9] 89 % of control | [10] 101 % of control | [11] 92 % of control

Cc1nc2ccc(-c3ccccc3)cc2s1
inactive: [12] 111 % of control | [13] 108 % of control | [14] 103 % of control

O=C(OCc1ccccc1CN1CCCC1)c1ccc(Br)cc1
inactive: [9] 111 % of control | [10] 90 % of control | [11] 96 % of control

C=C1C(=O)OC2CC(C)C3CC(=O)C(C)=C3C(O)C12 (configuration not stated)
inactive: dose: 25.0 mg/kg/injection, schedule: Q01DX009 (ip), vehicle: saline 94 % of control | dose: 50.0 mg/kg/injection, schedule: Q01DX009 (ip), vehicle: saline 98 % of control

CCCCCC=C(c1ccccc1)c1ccccc1
inactive: [12] 92 % of control | [13] 104 % of control | [14] 95 % of control

Nc1cc(C(=O)O)[nH]c(=O)n1
inactive: dose: 100.0 mg/kg/injection, schedule: Q01DX Z (ip), vehicle: methylcellulose (MC) 97 % of control

Cc1ccc(NS(=O)(=O)c2ccc(F)cc2)cc1Cl
inactive: [1] 92 % of control | [7] 100 % of control | [2] 95 % of control | [8] 97 % of control | [3] 95 % of control | [15] 97 % of control

NN(C(=O)c1ccccc1)C1CCCCC1
inactive: dose: 100.0 mg/kg/injection, schedule: Q04DX003 (ip), vehicle: saline with Tween-80 104 % of control | dose: 200.0 mg/kg/injection, schedule: Q04DX003 (ip), vehicle: saline with Tween-80 96 % of control | dose: 400.0 mg/kg/injection, schedule: Q04DX003 (ip), vehicle: saline with Tween-80 96 % of control

S=c1sc2ccccc2n1CN1CCCCC1
inactive: [1] 95 % of control | [7] 92 % of control | [2] 103 % of control | [8] 97 % of control | [3] 105 % of control | [15] 96 % of control

CN(Cc1ccccc1Cl)C(=S)NC1CCCCC1
inactive: [1] 92 % of control | [2] 93 % of control | [3] 93 % of control

Nc1nc(C(=O)O)cc(=O)[nH]1
inactive: dose: 100.0 mg/kg/injection, schedule: Q01DX001 (ip), vehicle: carboxymethylcellulose (CMC) 103 % of control | dose: 200.0 mg/kg/injection, schedule: Q01DX001 (ip), vehicle: carboxymethylcellulose (CMC) 113 % of control | dose: 400.0 mg/kg/injection, schedule: Q01DX001 (ip), vehicle: carboxymethylcellulose (CMC) 96 % of control

Nc1ccc(S(=O)(=O)Nc2ccc(S(=O)(=O)O)c3ccc(S(=O)(=O)O)cc23)cc1
inactive: dose: 75.0 mg/kg/injection, schedule: Q04DX003 (ip), vehicle: Klucel (hydroxypropylcellulose) (HPC) 95 % of control | dose: 150.0 mg/kg/injection, schedule: Q04DX003 (ip), vehicle: Klucel (hydroxypropylcellulose) (HPC) 93 % of control | dose: 300.0 mg/kg/injection, schedule: Q04DX003 (ip), vehicle: Klucel (hydroxypropylcellulose) (HPC) 98 % of control

O=C(O)CCCC[Se][Se]CCCCC(=O)O
inactive: dose: 25.0 mg/kg/injection, schedule: Q01DX001 (ip), vehicle: Klucel (hydroxypropylcellulose) (HPC) 102 % of control | dose: 50.0 mg/kg/injection, schedule: Q01DX001 (ip), vehicle: Klucel (hydroxypropylcellulose) (HPC) 96 % of control | dose: 100.0 mg/kg/injection, schedule: Q01DX001 (ip), vehicle: Klucel (hydroxypropylcellulose) (HPC) 99 % of control
